Assay results taken from PubChem BioAssay (NCI).
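Grown in 96-well plates, cells were treated for 48 hours with each compound at five concentrations. Insufficient inhibition: endpoint recorded as highest concentration tested. Here, GI50 denotes the concentration required for 50% inhibition of growth. TGI is the concentration that stops growth completely.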

Tests used:
Assay in all cases: DTP human tumour cell line panel, 48 h
T-47D breast = system: T-47D breast
SF-539 CNS = system: SF-539 CNS
SW-620 colon = system: SW-620 colon
MOLT-4 leukemia = system: MOLT-4 leukemia
NCI-H460 lung = system: NCI-H460 lung
MDA-MB-435 = system: MDA-MB-435
MALME-3M melanoma = system: MALME-3M melanoma
A549 NSCLC = system: A549 NSCLC
HOP-92 NSCLC = system: HOP-92 NSCLC
SNB-75 CNS = system: SNB-75 CNS
SF-295 CNS = system: SF-295 CNS
TK-10 renal = system: TK-10 renal
DU-145 prostate = system: DU-145 prostate
KM12 colon = system: KM12 colon
CAKI-1 renal = system: CAKI-1 renal
OVCAR-3 ovarian = system: OVCAR-3 ovarian
RPMI-8226 leukemia = system: RPMI-8226 leukemia
EKVX NSCLC = system: EKVX NSCLC
HT29 colon = system: HT29 colon
HCC-2998 colon = system: HCC-2998 colon
BT-549 breast = system: BT-549 breast
UO-31 renal = system: UO-31 renal
HCT-15 colon = system: HCT-15 colon
SK-MEL-5 melanoma = system: SK-MEL-5 melanoma
A498 renal = system: A498 renal
SK-OV-3 ovarian = system: SK-OV-3 ovarian
UACC-257 melanoma = system: UACC-257 melanoma
IGROV1 ovarian = system: IGROV1 ovarian
U251 CNS = system: U251 CNS
NCI-H522 lung = system: NCI-H522 lung
HOP-62 NSCLC = system: HOP-62 NSCLC
OVCAR-4 ovarian = system: OVCAR-4 ovarian
OVCAR-5 ovarian = system: OVCAR-5 ovarian
PC-3 prostate = system: PC-3 prostate
NCI-H23 lung = system: NCI-H23 lung
HCT-116 colon = system: HCT-116 colon
NCI-H226 lung = system: NCI-H226 lung
MDA-MB-231 breast = system: MDA-MB-231 breast
HS 578T breast = system: HS 578T breast
MCF7 breast = system: MCF7 breast
OVCAR-8 ovarian = system: OVCAR-8 ovarian
SK-MEL-28 melanoma = system: SK-MEL-28 melanoma
RXF 393 renal = system: RXF 393 renal
SR leukemia = system: SR leukemia
MDA-MB-468 breast = system: MDA-MB-468 breast
SN12C renal = system: SN12C renal
CCRF-CEM leukemia = system: CCRF-CEM leukemia
SF-268 CNS = system: SF-268 CNS
M14 melanoma = system: M14 melanoma
ACHN renal = system: ACHN renal
COLO 205 colon = system: COLO 205 colon
786-0 renal = system: 786-0 renal
HL-60(TB) leukemia = system: HL-60(TB) leukemia
SNB-19 CNS = system: SNB-19 CNS
LOX IMVI melanoma = system: LOX IMVI melanoma
UACC-62 melanoma = system: UACC-62 melanoma
K-562 leukemia = system: K-562 leukemia

`CC(C)Sc1nc(NCCc2c[nH]c3ccccc23)c(C#N)c(-c2ccc(F)cc2)n1` gave a GI50 (T-47D breast) of 4.82 µM, a TGI (T-47D breast) of 17.3 µM and a GI50 (SF-539 CNS) of 10.3 µM. It also gave a TGI (SF-539 CNS) of 23.6 µM, a GI50 (SW-620 colon) of 7.84 µM and a TGI (SW-620 colon) of 21.1 µM. It also gave a GI50 (MOLT-4 leukemia) of 6.25 µM, a TGI (MOLT-4 leukemia) of 39.8 µM and a GI50 (NCI-H460 lung) of 4.25 µM. The TGI (NCI-H460 lung) was 15.1 µM, the GI50 (MDA-MB-435) was 13.4 µM and the TGI (MDA-MB-435) was 26.8 µM. It also gave a GI50 (MALME-3M melanoma) of 14.1 µM, a TGI (MALME-3M melanoma) of 27.2 µM and a GI50 (A549 NSCLC) of 12.7 µM. For the same compound, the TGI (A549 NSCLC) was 26.4 µM, the GI50 (HOP-92 NSCLC) was 13.1 µM and the TGI (HOP-92 NSCLC) was 30.1 µM. The GI50 (SNB-75 CNS) was 13.6 µM, the TGI (SNB-75 CNS) was 47.2 µM and the GI50 (SF-295 CNS) was 12 µM. For the same compound, the TGI (SF-295 CNS) was 25.6 µM, the GI50 (TK-10 renal) was 17.4 µM and the TGI (TK-10 renal) was 32.4 µM. It also gave a GI50 (DU-145 prostate) of 12 µM, a TGI (DU-145 prostate) of 27 µM and a GI50 (KM12 colon) of 4.92 µM. It also gave a TGI (KM12 colon) of 17.9 µM, a GI50 (CAKI-1 renal) of 10.1 µM and a TGI (CAKI-1 renal) of 22.2 µM. For the same compound, the GI50 (OVCAR-3 ovarian) was 13.3 µM, the TGI (OVCAR-3 ovarian) was 27.7 µM and the GI50 (RPMI-8226 leukemia) was 6.7 µM. It also gave a TGI (RPMI-8226 leukemia) of 49.9 µM, a GI50 (EKVX NSCLC) of 11.4 µM and a TGI (EKVX NSCLC) of 24.5 µM. The GI50 (HT29 colon) was 4.61 µM, the TGI (HT29 colon) was 16 µM and the GI50 (HCC-2998 colon) was 7.67 µM. For the same compound, the TGI (HCC-2998 colon) was 20.2 µM, the GI50 (BT-549 breast) was 11.7 µM and the TGI (BT-549 breast) was 25 µM. It also gave a GI50 (UO-31 renal) of 11.6 µM, a TGI (UO-31 renal) of 24.1 µM and a GI50 (HCT-15 colon) of 3.74 µM. The TGI (HCT-15 colon) was 14.7 µM, the GI50 (SK-MEL-5 melanoma) was 6.05 µM and the TGI (SK-MEL-5 melanoma) was 18.6 µM. The GI50 (A498 renal) was 16.4 µM, the TGI (A498 renal) was 32.2 µM and the GI50 (SK-OV-3 ovarian) was 17.2 µM. The TGI (SK-OV-3 ovarian) was 49.3 µM, the GI50 (UACC-257 melanoma) was 15.4 µM and the TGI (UACC-257 melanoma) was 32.1 µM. It also gave a GI50 (IGROV1 ovarian) of 12.3 µM, a TGI (IGROV1 ovarian) of 26.3 µM and a GI50 (U251 CNS) of 7.65 µM. For the same compound, the TGI (U251 CNS) was 20.2 µM, the GI50 (NCI-H522 lung) was 12.5 µM and the TGI (NCI-H522 lung) was 26 µM. For the same compound, the GI50 (HOP-62 NSCLC) was 1.97 µM, the TGI (HOP-62 NSCLC) was 4.12 µM and the GI50 (OVCAR-4 ovarian) was 11.4 µM. The TGI (OVCAR-4 ovarian) was 28.8 µM, the GI50 (OVCAR-5 ovarian) was 12.6 µM and the TGI (OVCAR-5 ovarian) was 25.1 µM. It also gave a GI50 (PC-3 prostate) of 5.38 µM, a TGI (PC-3 prostate) of 40.7 µM and a GI50 (NCI-H23 lung) of 14.3 µM. The TGI (NCI-H23 lung) was 28.3 µM, the GI50 (HCT-116 colon) was 3.75 µM and the TGI (HCT-116 colon) was 14.1 µM. For the same compound, the GI50 (NCI-H226 lung) was 9.18 µM, the TGI (NCI-H226 lung) was 21.9 µM and the GI50 (MDA-MB-231 breast) was 9.08 µM. For the same compound, the TGI (MDA-MB-231 breast) was 22.1 µM, the GI50 (HS 578T breast) was 10.2 µM and the TGI (HS 578T breast) was 43.4 µM. It also gave a GI50 (MCF7 breast) of 5.42 µM, a TGI (MCF7 breast) of 18.8 µM and a GI50 (OVCAR-8 ovarian) of 11.6 µM. The TGI (OVCAR-8 ovarian) was 26.1 µM, the GI50 (SK-MEL-28 melanoma) was 12.7 µM and the TGI (SK-MEL-28 melanoma) was 27.1 µM. It also gave a GI50 (RXF 393 renal) of 4.32 µM, a TGI (RXF 393 renal) of 16.5 µM and a GI50 (SR leukemia) of 2.92 µM. It also gave a TGI (SR leukemia) of 28.7 µM, a GI50 (MDA-MB-468 breast) of 3.21 µM and a TGI (MDA-MB-468 breast) of 12 µM. The GI50 (SN12C renal) was 12.5 µM, the TGI (SN12C renal) was 25.1 µM and the GI50 (CCRF-CEM leukemia) was 6.34 µM. It also gave a TGI (CCRF-CEM leukemia) of 65.6 µM, a GI50 (SF-268 CNS) of 12.8 µM and a TGI (SF-268 CNS) of 42.2 µM. For the same compound, the GI50 (M14 melanoma) was 9.86 µM, the TGI (M14 melanoma) was 23.9 µM and the GI50 (ACHN renal) was 11.1 µM. For the same compound, the TGI (ACHN renal) was 23.1 µM, the GI50 (COLO 205 colon) was 7.98 µM and the TGI (COLO 205 colon) was 20.7 µM. It also gave a GI50 (786-0 renal) of 10.6 µM, a TGI (786-0 renal) of 22.7 µM and a GI50 (HL-60(TB) leukemia) of 11.4 µM. The TGI (HL-60(TB) leukemia) was 54.5 µM, the GI50 (SNB-19 CNS) was 14.9 µM and the TGI (SNB-19 CNS) was 31 µM. For the same compound, the GI50 (LOX IMVI melanoma) was 3.65 µM, the TGI (LOX IMVI melanoma) was 12.8 µM and the GI50 (UACC-62 melanoma) was 12.9 µM. The TGI (UACC-62 melanoma) was 26.6 µM, the GI50 (K-562 leukemia) was 4.87 µM and the TGI (K-562 leukemia) was > 100 µM.
